{"source": "patent US10232044B2", "about": "“Controlled release aural pressure modulator compositions and methods for the treatment of OTIC disorders” (Otonomy, Inc., priority 2008, dated 2019)", "origin": "cited, not measured here", "key": {"intra-ocular pressure": {"tested_on": "intra-ocular pressure", "conditions": "glaucoma patients"}, "8-isoprostaglandin F2α": {"tested_on": "8-isoprostaglandin F2α", "conditions": "sensorineural hearing loss animal models, noise exposure"}, "[1]": {"molecular_target": "constitutively activated D136A mutant VP2 receptor (Homo sapiens, UniProt P30518, D136A)"}}, "note": "Read-outs that look alike come from different tables or passages of the source.", "data": [{"compound": "CCCCCCCC(=O)CC[C@@H]1[C@@H](C/C=C\\CCCC(=O)O)[C@@H](O)C[C@H]1O", "note": "[unoprostone]", "values": [{"measurement": "intra-ocular pressure", "setting": "intra-ocular pressure", "result": "reduce intra-ocular pressure"}]}, {"compound": "O=C(O)CCC/C=C\\C[C@@H]1[C@H](CNNC(=O)Nc2ccccc2)[C@H]2CC[C@@H]1O2", "note": "[SQ29548]", "values": [{"measurement": "noise-induced changes in cochlear blood flow and vascular conductance", "setting": "8-isoprostaglandin F2α", "result": "prevents these noise-induced changes"}]}, {"compound": "CC(C)OC(=O)CCC/C=C\\C[C@@H]1[C@@H](/C=C/[C@@H](O)COc2cccc(C(F)(F)F)c2)[C@H](O)C[C@@H]1O", "note": "[travoprost]", "values": [{"measurement": "intra-ocular pressure", "setting": "intra-ocular pressure", "result": "reduce intra-ocular pressure"}]}, {"compound": "CCNC(=O)CCC/C=C\\C[C@@H]1[C@@H](/C=C/[C@@H](O)CCc2ccccc2)[C@H](O)C[C@@H]1O", "note": "[bimtoprost]", "values": [{"measurement": "intra-ocular pressure", "setting": "intra-ocular pressure", "result": "reduce intra-ocular pressure"}]}, {"compound": "CCCCC[C@H](O)/C=C/[C@@H]1[C@@H](C/C=C\\CCCC(=O)O)[C@@H](O)C[C@H]1O", "note": "[minprostin F2 alpha]", "values": [{"measurement": "intra-ocular pressure", "setting": "intra-ocular pressure", "result": "reduce intra-ocular pressure"}]}, {"compound": "CCOc1ccc2c(c1)C1(CCC(OCCN3CCOCC3)CC1)C(=O)N2S(=O)(=O)c1ccc(C(=O)NC(C)(C)C)cc1OC", "note": "(stereo not drawn) [SR-1211463]", "values": [{"measurement": "behaviour at D136A mutant VP2 receptor", "setting": "[1]", "result": "inverse agonist"}]}, {"compound": "NC(=O)CC[C@@H]1NC(=O)[C@H](Cc2ccccc2)NC(=O)[C@H](Cc2ccc(O)cc2)NC(=O)[C@@H](N)CSSC[C@@H](C(=O)N2CCC[C@H]2C(=O)N[C@@H](CCCN=C(N)N)C(=O)NCC(N)=O)NC(=O)[C@H](CC(N)=O)NC1=O", "note": "[VP]", "values": [{"measurement": "endolymphatic hydrops", "setting": "endolymphatic hydrops; chronic administration, guinea pigs", "result": "induces endolymphatic hydrops"}, {"measurement": "endolymphatic hydrops", "setting": "endolymphatic hydrops; systemic administration, guinea pig", "result": "development of endolymphatic hydrops"}]}, {"compound": "CC(C)OC(=O)CCC/C=C\\C[C@@H]1[C@@H](CC[C@@H](O)CCc2ccccc2)[C@H](O)C[C@@H]1O", "note": "[latanoprost]", "values": [{"measurement": "intra-ocular pressure", "setting": "intra-ocular pressure", "result": "reduce intra-ocular pressure"}]}]}
